For one experiment, the system named is HT-1080 cells. Put plainly: Formation of cell-bound plasmin on HT-1080 cells in serum culture (tranexamic acid eluate, thioesterase assay). In kind it is cell-based, human. To be noted: for Bound plasmin activity: 2 h, serum medium, all with Plg 40 μg/ml, aprotinin, anti-Plg-1, TA (100 μM) also with anti-PAI-1 10 μg/ml; for activity at 10 µM / activity at 100 µM: Homo sapiens, HT-1080; for activity at 10 µM: Plg 40 μg/ml + TA 10 μM; for activity at 100 µM: Plg 40 μg/ml + TA 100 μM. As for the experimental part: Human fibrosarcoma cells (HT-1080, CCL 121) were obtained from the American Type Culture Collection, Rockville, Md. Confluent cell layers were grown in plastic Linbro wells (2 cm^2; Flow Laboratories) in Eagle's minimal essential medium (MEM) supplemented with 10% heat-inactivated (56° C. for 60 minutes) fetal calf serum (Gibco), 100 IU/ml penicillin and 50 μg/ml streptomycin. After reaching confluence, the cells were rinsed three times with MEM containing 0.2% bovine serum albumin (BSA), then changed to either serum-free medium (0.5 ml) or medium containing 10% heat-inactivated and plasminogen-depleted (i.e. absorbed with lysine-Sepharose; Pharmacia, Uppsala, Sweden) fetal calf serum as indicated in the Examples.
Human plasminogen (with glutamic acid N-terminal) was prepared by affinity chromatography on lysine-Sepharose (Deutsch, D. G., and E. T. Mertz, “Plasminogen: Purification from human plasma by affinity chromatography”, Science 170: 1095-1097, 1970) from freshly separated, unfrozen human plasma pretreated with 10 μM p-nitrophenyl guanidinobenzoate, 1 mM phenylmethylsulfonylfluoride and 0.1 μg/ml of an anti-catalytic murine monoclonal IgG antibody to human t-PA (ESP-2; see MacGregor, I. R. et al., “Characterization of epitopes on human tissue plasminogen activator recognised by a group of monoclonal antibodies”, Thromb. Haem. 53: 45-50, 1985); American Diagnostica, Greenwich, Conn.).
Res. 46: 755-766, 1987) titration equivalent of 3.6 IU u-PA/ml; an anti-catalytic murine monoclonal IgG antibody to human u-PA (clone 2 (10 μg/ml) in Nielsen, L. S. et al., “Enzyme-linked immunosorbent assay for human urokinase-type plasminogen activators and its proenzyme using a combination of monoclonal and polyclonal antibodies”, J. Immunoassay 7: 209-228, 1986); the anti-catalytic monoclonal antibody to human t-PA (10 μg/ml); a neutralising murine monoclonal IgG antibody to human PAI-1 (Nielsen, L. S. et al., “Monoclonal antibodies to human 54,000 molecular weight plasminogen activator inhibitor from fibrosarcoma cells—inhibitor neutralization and one-step affinity purification”, Thromb. Haem. 55: 206-212, 1986) (10 μg/ml) and diisopropyl fluorophosphate (DFP)-inactivated u-PA (0-10 μg/ml).
The plasmin activity of culture supernatant samples (50 μl) was assayed directly by incubation with the thioester substrate solution above (200 μl) for 30 minutes (serum-free supernatants) or 3 hours (serum-containing supernatants) at 37° C. An estimate of the amount of active plasmin present was made from calibration curves using human plasmin dilutions in serum-free medium covering the appropriate ranges of activity.
Plasmin bound to the cell layer was recovered and assayed as follows. After harvest of culture medium, the cells were rinsed three times with PBS (plasmin assays of further rinses were negative); then the bound plasmin was specifically eluted (Miles, L. A., and E. F. Plow, “Binding and activation of plasminogen on the platelet surface”, J. Biol. Chem. 260: 4303-4311, 1985) with a solution of 1 mM tranexamic acid in the same rinsing solution (150 μl/well). Plasmin activity was assayed in eluate samples (50 μl) as above with an incubation time of 3 hours at 37° C. Tranexamic acid at 1 mM had no effect on the thioesterase activity of plasmin in these assays.
The following additions were made to cell layers growing in MEM medium (0.5 ml) containing 10% heat-inactivated and plasminogen-depleted fetal calf serum: native human plasminogen (Plg, 40 μg/ml); anti-catalytic monoclonal antibody to human u-PA (10 μg/ml); anti-catalytic monoclonal antibody to human t-PA (10 μg/ml); PAI-2 (titration equivalent of 3.6 UI u-PA/ml); anti-catalytic monoclonal antibody to human plasmin (20 μg/ml); aprotinin (200 KIU/ml); tranexamic acid (TA, as shown). The cultures were incubated for the times shown before assay of cell-bound plasmin. The incubation with plasminogen was used as the 100% control for bound plasmin. […]

The next experiment has as its target fibronectin (Homo sapiens, UniProt P02751). To be noted: immobilized fibronectin; cited from earlier work.
The target of the next experiment is u-PA (Homo sapiens, UniProt P00749). Put plainly: Inhibition of u-PA in solution by PAI's (association rate constants). The experiment is classed as biochemical. The source says:
Plasminogen was purified from fresh human plasma as previously described (Danø and Reich, 1979), and was further separated into its two isoforms by elution from lysine-Sepharose with a linear gradient of 6-amino-hexanoic acid. Plasminogen isoform 2 was used in all experiments described here. u-PA (Mr 55,000) was obtained either by plasmin activation of pro-uPA (Ellis et al., 1987) or as Ukidan (Serono). Both preparations were greater than 95% high molecular weight u-PA by SDS-polyacrylamide gel electrophoresis. The concentration of active u-PA in these preparations was determined by active-site titration with p-nitrophenyl-p-guanidinobenzoate (Sigma Chem. Co.). DFP-inactivated u-PA was prepared as described in Example 1. […] The concentrations of active inhibitor in the various PAI preparations were determined by titration against u-PA immediately before use in the kinetic experiments. […] Residual u-PA activity was then measured by hydrolysis of 0.2 mM Glu-Gly-Arg-AMC (Bachem, Switzerland).
The effect of PAI's on the activity of cell-bound u-PA was determined by the addition of varying concentrations of PAI-1 (0.18-18.4 nM) or PAI-2 (1.13-56.7 nM) to the incubations at the same time as the addition of plasminogen. […]
[pln]∞ was calculated from the relationship: […]
where Δ[pln]0 is the initial rate of plasmin generation which was determined in control incubations in the absence of inhibitors. […]

[1] abbreviates: 3 h, serum medium with Plg 40 μg/ml (=100%), anti-u-PA 10 μg/ml, anti-t-PA 10 μg/ml, PAI-2 equiv. 3.6 IU u-PA/ml, aprotinin 200 KIU/ml, anti-Plg-1 20 μg/ml.
[2] abbreviates: 17 h, serum medium with Plg 40 μg/ml (=100%), additions as b555.

As a reminder, the Kd is the concentration at which binding is half-saturated.

Chain of fibronectin (P02751 32-2477, species assumed): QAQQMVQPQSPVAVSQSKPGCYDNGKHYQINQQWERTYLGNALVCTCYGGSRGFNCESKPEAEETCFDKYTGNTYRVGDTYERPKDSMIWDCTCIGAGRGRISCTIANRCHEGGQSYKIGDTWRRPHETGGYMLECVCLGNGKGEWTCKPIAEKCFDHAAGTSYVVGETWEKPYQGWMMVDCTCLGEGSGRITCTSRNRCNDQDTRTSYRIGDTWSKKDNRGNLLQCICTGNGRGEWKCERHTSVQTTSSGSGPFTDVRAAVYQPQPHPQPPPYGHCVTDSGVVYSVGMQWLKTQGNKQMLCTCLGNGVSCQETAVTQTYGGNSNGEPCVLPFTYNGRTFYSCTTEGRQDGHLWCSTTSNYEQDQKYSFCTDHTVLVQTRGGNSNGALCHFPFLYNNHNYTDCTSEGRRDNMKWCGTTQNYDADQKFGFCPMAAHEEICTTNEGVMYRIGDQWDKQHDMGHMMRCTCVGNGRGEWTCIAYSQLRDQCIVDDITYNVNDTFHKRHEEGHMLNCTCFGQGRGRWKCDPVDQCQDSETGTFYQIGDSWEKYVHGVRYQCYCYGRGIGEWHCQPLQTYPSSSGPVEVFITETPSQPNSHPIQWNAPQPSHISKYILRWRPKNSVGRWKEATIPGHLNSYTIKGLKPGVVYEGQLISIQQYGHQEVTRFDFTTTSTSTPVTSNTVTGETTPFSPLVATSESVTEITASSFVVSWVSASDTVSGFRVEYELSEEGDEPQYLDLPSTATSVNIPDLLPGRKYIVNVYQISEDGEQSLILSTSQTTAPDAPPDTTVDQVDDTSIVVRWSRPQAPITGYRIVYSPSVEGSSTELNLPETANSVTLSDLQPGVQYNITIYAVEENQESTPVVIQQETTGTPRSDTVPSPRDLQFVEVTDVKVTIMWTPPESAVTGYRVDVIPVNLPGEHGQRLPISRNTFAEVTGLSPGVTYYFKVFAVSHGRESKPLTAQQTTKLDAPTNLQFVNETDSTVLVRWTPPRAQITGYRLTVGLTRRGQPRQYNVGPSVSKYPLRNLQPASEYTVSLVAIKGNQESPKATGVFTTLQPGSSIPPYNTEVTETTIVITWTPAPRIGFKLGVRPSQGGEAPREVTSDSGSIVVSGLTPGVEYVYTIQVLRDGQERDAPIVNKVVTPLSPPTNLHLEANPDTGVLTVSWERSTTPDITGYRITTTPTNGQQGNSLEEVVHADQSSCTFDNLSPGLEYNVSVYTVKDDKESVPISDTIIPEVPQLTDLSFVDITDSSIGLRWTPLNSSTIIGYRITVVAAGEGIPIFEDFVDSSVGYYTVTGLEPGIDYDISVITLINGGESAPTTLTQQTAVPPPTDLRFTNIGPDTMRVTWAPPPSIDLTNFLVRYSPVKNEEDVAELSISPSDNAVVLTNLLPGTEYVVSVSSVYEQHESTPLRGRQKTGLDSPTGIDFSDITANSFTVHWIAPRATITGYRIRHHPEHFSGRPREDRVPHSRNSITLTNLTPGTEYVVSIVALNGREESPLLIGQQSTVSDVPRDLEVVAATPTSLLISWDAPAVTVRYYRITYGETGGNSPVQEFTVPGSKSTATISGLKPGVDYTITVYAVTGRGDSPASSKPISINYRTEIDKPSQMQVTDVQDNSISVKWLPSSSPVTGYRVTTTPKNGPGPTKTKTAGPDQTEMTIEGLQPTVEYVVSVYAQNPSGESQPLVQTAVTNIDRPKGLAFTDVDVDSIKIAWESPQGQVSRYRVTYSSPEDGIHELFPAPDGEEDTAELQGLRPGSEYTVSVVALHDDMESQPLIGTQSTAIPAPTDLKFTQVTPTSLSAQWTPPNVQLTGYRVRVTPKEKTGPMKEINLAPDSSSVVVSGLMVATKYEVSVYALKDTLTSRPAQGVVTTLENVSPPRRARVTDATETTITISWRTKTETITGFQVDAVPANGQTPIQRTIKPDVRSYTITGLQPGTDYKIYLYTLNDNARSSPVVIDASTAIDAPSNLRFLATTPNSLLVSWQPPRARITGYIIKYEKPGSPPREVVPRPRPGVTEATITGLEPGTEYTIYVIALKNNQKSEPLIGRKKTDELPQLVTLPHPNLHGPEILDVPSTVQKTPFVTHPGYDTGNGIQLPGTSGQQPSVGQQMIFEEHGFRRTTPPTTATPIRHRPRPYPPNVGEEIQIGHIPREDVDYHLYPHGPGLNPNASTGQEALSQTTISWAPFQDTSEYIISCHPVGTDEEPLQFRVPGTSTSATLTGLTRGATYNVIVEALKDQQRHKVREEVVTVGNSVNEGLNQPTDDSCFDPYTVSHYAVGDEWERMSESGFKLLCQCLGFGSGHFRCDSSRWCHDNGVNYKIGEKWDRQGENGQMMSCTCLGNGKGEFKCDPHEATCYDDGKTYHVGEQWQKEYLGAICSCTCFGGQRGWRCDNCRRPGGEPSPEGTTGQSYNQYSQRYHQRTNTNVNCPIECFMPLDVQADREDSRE

For the molecule `NC[C@H]1CC[C@H](C(=O)O)CC1` [TA, tranexamic acid], in the experiment on HT-1080 cells, the “Bound plasmin activity” value is recorded as 0 ng. For the same molecule, the figures for the activity at 10 µM with HT-1080 cells (3 h) and in the experiment with HT-1080 cells (17 h) were 9.7% and 34%, respectively. In addition, the activity at 100 µM is 2.2% with HT-1080 cells (3 h) and 13% in the experiment with HT-1080 cells (17 h).
For the molecule “Plg: native human plasminogen (glutamic acid N-terminal) purified from human plasma on lysine-Sepharose”, the “Plasmin recovered from the cell layer” value in the experiment on HT-1080 cells (40 μg/ml human plasminogen in 0.5 ml serum medium, 2 cm^2 cell layer, 3 hours 37° C.) is recorded as 28 ng. In the experiment with HT-1080 cells (40 μg/ml human plasminogen in 0.5 ml serum medium, 3 hours 37° C.), the “Plasmin measurable in the medium” value was found to be 10 ng. The “Bound plasmin activity” value in the experiment with HT-1080 cells was found to be 12 ng. Besides, the “Bound plasmin activity (%)” value in the experiment on HT-1080 cells (setting [1]) and with HT-1080 cells (setting [2]) was 100% throughout. Also, in the experiment with fibronectin, the dissociation constant (Kd) is 90 nM.
Turning to aprotinin, the “Bound plasmin activity” value with HT-1080 cells worked out at 3.3 ng. Besides, the figures for the “Bound plasmin activity (%)” value in the experiment with HT-1080 cells (setting [1]) and in the experiment on HT-1080 cells (setting [2]) were 13.2% and 7.8%, respectively.

B1: PAI-2: human type-2 plasminogen activator inhibitor purified from U937 cells (protein, UniProt P05120 1-415, looked up)
Plasminogen activator …: MEDLCVANTLFALNLFKHLAKASPTQNLFLSPWSISSTMAMVYMGSRGSTEDQMAKVLQFNEVGANAVTPMTPENFTSCGFMQQIQKGSYPDAILQAQAADKIHSSFRSLSSAINASTGNYLLESVNKLFGEKSASFREEYIRLCQKYYSSEPQAVDFLECAEEARKKINSWVKTQTKGKIPNLLPEGSVDGDTRMVLVNAVYFKGKWKTPFEKKLNGLYPFRVNSAQRTPVQMMYLREKLNIGYIEDLKAQILELPYAGDVSMFLLLPDEIADVSTGLELLESEITYDKLNKWTSKDKMAEDEVEVYIPQFKLEEHYELRSILRSMGMEDAFNKGRANFSGMSERNDLFLSEVFHQAMVDVNEEGTEAAAGTGGVMTGRTGHGGPQFVADHPFLFLIMHKITNCILFFGRFSSP
For the molecule B1, the “Bound plasmin activity (%)” value in the experiment with HT-1080 cells (setting [1]) was 48%; with HT-1080 cells (setting [2]), 19%; in the experiment with HT-1080 cells (cells preincubated 1 h with inhibitor (anti-u-PA 10 μg/ml, PAI-2 equiv. 3.6 IU u-PA/ml), rinsed, then 3 h with Plg 40 μg/ml in serum medium) it was 54%. Moreover, the Association rate constant in the experiment with u-PA (direct assay with u-PA specific fluorogenic peptide substrate) is 520000 M⁻¹ s⁻¹; with u-PA (plasminogen activation assay), 530000 M⁻¹ s⁻¹.

Source of the values: patent US20030027981A1, “Urokinase-type plasminogen activator receptor” (priority 1989, published 2003).
